Results: ChEMBL document CHEMBL5137040, “Identification of non-ATP-competitive α-carboline inhibitors of the anaplastic lymphoma kinase” (Eur J Med Chem, 2022)
pIC50: −log10 of the molar value. Calls of active or inactive are those of the source. No cut-off for these calls is given here.

Tests used:
[1] = system: BaF3; assay: cells; conditions: Mus musculus, BaF3, 72 h
[2] = system: BaF3; assay: cells; conditions: Mus musculus, BaF3, 72 h; remark: listed apart in the source
[3] = system: BaF3; assay: cells; conditions: Mus musculus, BaF3, 72 h; remark: listed apart in the source
[4] = target: ALK tyrosine kinase receptor (Homo sapiens, UniProt Q9UM73); format: cell-based, Sf9
Sequence of ALK tyrosine kinase receptor (Q9UM73 whole entry): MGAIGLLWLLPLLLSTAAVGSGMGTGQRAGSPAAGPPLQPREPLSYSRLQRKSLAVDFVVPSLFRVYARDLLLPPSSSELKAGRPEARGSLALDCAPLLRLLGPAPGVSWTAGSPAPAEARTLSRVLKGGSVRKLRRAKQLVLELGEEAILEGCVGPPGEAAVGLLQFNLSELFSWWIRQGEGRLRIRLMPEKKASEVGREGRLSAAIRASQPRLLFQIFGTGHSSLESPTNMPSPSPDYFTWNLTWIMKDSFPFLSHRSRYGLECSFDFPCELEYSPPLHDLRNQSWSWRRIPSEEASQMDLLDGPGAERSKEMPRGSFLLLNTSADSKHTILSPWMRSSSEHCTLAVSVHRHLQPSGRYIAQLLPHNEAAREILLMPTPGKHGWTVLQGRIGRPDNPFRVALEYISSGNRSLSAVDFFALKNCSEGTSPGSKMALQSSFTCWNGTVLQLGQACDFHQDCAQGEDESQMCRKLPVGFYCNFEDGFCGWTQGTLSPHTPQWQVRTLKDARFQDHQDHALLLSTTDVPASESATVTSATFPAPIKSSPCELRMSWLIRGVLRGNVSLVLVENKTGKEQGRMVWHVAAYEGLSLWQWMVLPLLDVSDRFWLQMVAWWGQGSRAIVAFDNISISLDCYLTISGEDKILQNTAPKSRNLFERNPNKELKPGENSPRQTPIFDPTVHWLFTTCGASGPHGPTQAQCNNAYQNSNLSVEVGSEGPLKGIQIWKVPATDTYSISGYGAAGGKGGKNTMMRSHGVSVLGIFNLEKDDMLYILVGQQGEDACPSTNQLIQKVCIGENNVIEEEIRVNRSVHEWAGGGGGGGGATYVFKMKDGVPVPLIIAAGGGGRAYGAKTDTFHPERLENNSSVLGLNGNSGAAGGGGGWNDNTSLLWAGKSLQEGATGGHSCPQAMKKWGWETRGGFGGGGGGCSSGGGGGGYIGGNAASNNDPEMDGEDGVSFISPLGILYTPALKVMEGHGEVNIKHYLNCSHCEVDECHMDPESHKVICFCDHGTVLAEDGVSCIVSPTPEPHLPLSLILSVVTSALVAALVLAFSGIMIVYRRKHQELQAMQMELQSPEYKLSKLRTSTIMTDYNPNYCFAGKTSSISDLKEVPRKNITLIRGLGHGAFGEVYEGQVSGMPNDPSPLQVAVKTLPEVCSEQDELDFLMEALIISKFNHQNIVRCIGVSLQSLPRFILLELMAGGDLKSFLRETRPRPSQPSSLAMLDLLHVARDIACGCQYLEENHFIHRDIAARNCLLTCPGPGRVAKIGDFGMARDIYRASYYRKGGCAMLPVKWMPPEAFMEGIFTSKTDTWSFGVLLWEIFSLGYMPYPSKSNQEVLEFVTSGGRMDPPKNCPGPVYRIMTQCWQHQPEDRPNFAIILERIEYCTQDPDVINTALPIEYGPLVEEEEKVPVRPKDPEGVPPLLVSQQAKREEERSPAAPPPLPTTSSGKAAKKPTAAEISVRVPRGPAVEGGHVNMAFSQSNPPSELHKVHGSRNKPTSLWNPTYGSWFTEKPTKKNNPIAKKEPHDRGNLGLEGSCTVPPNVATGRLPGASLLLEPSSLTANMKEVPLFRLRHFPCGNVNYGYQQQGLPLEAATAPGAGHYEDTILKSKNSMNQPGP

[5] = target: Epidermal growth factor receptor (Homo sapiens) (UniProt P00533); assay: Inhibition of recombinant EGFR (unknown origin) at 10 uM by kinase selectivity assay relative to control
Sequence of Epidermal growth factor receptor (Homo sapiens) (P00533 whole entry): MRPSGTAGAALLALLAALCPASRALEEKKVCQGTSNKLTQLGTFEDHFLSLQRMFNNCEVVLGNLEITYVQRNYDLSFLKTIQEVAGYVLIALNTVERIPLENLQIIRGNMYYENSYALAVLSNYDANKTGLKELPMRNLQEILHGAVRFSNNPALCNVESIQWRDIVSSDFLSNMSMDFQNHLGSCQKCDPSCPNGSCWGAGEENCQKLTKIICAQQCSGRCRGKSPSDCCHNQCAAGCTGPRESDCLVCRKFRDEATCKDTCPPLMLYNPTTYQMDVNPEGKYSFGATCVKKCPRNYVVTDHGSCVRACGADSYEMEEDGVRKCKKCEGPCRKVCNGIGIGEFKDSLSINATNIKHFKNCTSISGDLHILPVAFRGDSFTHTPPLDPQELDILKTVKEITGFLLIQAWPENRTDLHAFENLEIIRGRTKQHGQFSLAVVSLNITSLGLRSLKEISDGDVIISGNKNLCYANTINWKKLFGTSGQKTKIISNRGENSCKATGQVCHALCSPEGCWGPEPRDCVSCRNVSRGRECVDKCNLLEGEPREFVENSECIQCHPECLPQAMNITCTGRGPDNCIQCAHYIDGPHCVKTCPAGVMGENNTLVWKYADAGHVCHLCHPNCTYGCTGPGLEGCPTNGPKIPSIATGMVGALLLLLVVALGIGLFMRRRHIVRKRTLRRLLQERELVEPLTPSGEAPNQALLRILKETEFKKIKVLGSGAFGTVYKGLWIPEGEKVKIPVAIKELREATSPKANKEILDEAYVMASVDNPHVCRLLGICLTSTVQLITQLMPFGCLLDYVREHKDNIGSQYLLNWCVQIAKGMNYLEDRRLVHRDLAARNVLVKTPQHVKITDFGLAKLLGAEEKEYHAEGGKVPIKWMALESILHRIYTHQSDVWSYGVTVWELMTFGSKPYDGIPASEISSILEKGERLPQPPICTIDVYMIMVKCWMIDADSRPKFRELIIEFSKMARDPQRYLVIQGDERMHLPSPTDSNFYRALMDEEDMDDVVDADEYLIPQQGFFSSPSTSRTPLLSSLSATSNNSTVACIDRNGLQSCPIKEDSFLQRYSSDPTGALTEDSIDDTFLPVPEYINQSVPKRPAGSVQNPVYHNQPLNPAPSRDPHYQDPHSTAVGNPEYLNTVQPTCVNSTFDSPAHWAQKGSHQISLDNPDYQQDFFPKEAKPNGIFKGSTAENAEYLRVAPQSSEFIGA

[6] = system: HL-60; assay: Antiproliferative activity against NPM-ALK negative human HL-60 cells assessed as inhibition of cell growth incubated for 72 hrs by MTS assay; format: functional, cell-based; conditions: HL-60, 72 h
[7] = Antiproliferative activity against NPM-ALK positive human SUPM2 cells assessed as inhibition of cell growth incubated for 72 hrs by MTS assay; format: functional, cell-based; conditions: SUP-M2, 72 h
[8] = target: Insulin-like growth factor 1 receptor (Homo sapiens) (UniProt P08069); assay: Inhibition of recombinant IGF1R (unknown origin) at 10 uM by kinase selectivity assay relative to control
[9] = system: SUPM2; format: functional, cell-based; conditions: Homo sapiens, dose 0.1-10 µM, time 72.0 hrs
[10] = Half-life in po dosed nude mouse; format: ADME, organism-based; conditions: in vivo
[11] = system: SUPM2; assay: Antiproliferative activity against human SUPM2 cells harboring crizotinib resistant ALK […] mutant assessed as inhibition of cell growth at 0.1 to 10 uM incubated for 72 hrs by MTS assay; format: functional, cell-based; conditions: dose 0.1-10 µM
[12] = system: KARPAS-299; assay: Antitumor activity against human KARPAS-299 cells xenografted in nude mouse assessed as tumor growth inhibition at 100 mg/kg, po administered twice daily for 24 days; format: functional; set-up: scale not given: the % may be the effect or the level left; conditions: time 24 day
[13] = Tmax in po dosed nude mouse; format: ADME, organism-based; conditions: in vivo
[14] = target: Fibroblast growth factor receptor 1 (Homo sapiens) (UniProt P11362); assay: Inhibition of recombinant FGFR1 (unknown origin) at 10 uM by kinase selectivity assay relative to control
Sequence of Fibroblast growth factor receptor 1 (Homo sapiens) (P11362 22-822 limits assumed): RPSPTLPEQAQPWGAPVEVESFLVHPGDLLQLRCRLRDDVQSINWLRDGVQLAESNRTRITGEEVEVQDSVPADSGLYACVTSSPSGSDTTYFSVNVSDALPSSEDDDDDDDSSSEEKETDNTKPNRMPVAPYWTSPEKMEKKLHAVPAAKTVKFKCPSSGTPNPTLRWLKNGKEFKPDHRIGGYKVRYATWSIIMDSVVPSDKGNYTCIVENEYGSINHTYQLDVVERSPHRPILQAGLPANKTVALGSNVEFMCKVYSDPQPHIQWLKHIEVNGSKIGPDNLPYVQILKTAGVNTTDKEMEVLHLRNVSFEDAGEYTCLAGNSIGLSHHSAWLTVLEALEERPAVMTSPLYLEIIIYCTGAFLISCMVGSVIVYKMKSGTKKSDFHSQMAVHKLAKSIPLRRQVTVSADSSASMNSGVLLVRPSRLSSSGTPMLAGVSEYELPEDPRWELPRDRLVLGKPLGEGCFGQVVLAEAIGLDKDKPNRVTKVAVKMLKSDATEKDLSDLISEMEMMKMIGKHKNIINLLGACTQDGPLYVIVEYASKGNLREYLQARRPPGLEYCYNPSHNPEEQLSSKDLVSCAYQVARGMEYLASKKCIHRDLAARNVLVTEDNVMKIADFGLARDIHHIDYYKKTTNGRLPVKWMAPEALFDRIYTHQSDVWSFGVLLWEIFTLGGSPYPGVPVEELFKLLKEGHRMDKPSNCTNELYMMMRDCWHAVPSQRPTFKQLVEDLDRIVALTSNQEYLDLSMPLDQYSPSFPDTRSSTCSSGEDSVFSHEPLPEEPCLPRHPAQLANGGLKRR

[15] = system: BaF3; assay: Cytotoxicity against mouse BaF3 cells harboring crizotinib resistant NPM/ALK C1156Y mutant assessed as inhibition of cell proliferation incubated for 72 hrs by MTS assay; format: functional, cell-based; conditions: BaF3, 72 h
[16] = system: KARPAS-299; assay: Antiproliferative activity against NPM-ALK positive human KARPAS-299 cells assessed as inhibition of cell growth incubated for 72 hrs by MTS assay; format: functional, cell-based; conditions: KARPAS-299, 72 h
[17] = system: KARPAS-299; assay: Antitumor activity against crizotinib-resistant human KARPAS-299 cells harboring L1196Q mutant xenografted in nude mouse assessed as tumor growth inhibition at 100 mg/kg, po administered twice daily for 24 days; format: functional, organism-based; conditions: time 24.0 day
[18] = target: Vascular endothelial growth factor receptor 2 (Homo sapiens) (UniProt P35968); assay: Inhibition of recombinant VEGFR2 (unknown origin) at 10 uM by kinase selectivity assay relative to control
Sequence of Vascular endothelial growth factor receptor 2 (Homo sapiens) (P35968 whole entry): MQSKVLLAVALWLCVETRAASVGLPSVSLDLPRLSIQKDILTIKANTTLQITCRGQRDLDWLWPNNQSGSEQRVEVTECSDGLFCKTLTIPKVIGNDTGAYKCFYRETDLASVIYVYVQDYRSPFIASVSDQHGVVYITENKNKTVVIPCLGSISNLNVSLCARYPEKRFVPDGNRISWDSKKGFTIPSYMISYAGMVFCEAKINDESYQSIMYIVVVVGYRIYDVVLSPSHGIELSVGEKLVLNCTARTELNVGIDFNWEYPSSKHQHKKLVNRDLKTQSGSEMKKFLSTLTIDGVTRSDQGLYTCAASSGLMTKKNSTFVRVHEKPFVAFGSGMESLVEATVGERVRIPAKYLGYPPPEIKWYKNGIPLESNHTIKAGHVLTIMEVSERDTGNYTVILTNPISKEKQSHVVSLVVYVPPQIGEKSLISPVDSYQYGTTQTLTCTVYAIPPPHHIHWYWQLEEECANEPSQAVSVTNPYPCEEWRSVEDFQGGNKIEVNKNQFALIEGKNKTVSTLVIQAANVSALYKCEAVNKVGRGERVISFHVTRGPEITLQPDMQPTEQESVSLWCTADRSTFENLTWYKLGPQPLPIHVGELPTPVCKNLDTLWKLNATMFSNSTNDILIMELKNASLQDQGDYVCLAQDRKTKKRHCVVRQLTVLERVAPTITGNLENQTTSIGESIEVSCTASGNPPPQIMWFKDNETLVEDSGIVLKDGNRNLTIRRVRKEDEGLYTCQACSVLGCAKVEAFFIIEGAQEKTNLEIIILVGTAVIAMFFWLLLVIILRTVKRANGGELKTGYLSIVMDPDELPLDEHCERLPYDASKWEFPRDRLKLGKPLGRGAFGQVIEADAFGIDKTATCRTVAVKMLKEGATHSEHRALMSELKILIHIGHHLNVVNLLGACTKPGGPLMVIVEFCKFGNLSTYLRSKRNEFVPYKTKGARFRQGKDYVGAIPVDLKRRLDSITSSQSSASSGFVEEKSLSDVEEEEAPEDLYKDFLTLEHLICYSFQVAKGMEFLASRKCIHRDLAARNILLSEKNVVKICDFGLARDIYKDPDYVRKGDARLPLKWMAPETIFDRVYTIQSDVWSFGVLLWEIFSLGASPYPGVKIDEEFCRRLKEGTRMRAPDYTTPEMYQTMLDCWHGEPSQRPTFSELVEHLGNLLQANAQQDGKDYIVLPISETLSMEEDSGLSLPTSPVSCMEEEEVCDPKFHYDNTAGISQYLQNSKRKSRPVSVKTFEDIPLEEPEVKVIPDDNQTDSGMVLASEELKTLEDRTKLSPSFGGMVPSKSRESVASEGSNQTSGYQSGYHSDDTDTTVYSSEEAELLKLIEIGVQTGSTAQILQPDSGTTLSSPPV

[19] = system: BaF3; assay: Cytotoxicity against mouse BaF3 cells harboring crizotinib resistant NPM/ALK I1171N mutant assessed as inhibition of cell proliferation incubated for 72 hrs by MTS assay; format: functional, cell-based; conditions: BaF3, 72 h
[20] = system: SU-DHL-1; assay: Antiproliferative activity against NPM-ALK positive human SU-DHL-1 cells assessed as inhibition of cell growth incubated for 72 hrs by MTS assay; format: functional, cell-based; conditions: SU-DHL-1, 72 h
[21] = system: SUPM2; assay: Antiproliferative activity against human SUPM2 cells harboring crizotinib resistant ALK S1206C mutant assessed as inhibition of cell growth at 0.1 to 10 uM incubated for 72 hrs by MTS assay; format: functional, cell-based; conditions: dose 0.1-10 µM
[22] = system: BaF3; assay: Cytotoxicity against mouse BaF3 cells harboring crizotinib resistant NPM/ALK F1174L mutant assessed as inhibition of cell proliferation incubated for 72 hrs by MTS assay; format: functional, cell-based; conditions: BaF3, 72 h
[23] = system: KARPAS-299; assay: Antiproliferative activity against human KARPAS-299 cells harboring crizotinib resistant ALK L1196Q mutant assessed as inhibition of cell growth at 0.1 to 10 uM incubated for 72 hrs by MTS assay; format: functional, cell-based; conditions: dose 0.1-10 µM

| pIC50 [1] | pIC50 [2] | pIC50 [3] | pIC50 [4] | Structure (SMILES) | also measured |
| --- | --- | --- | --- | --- | --- |
| 5.39 | 5.80 | 6.22 |  | COc1ccc(/C=C/c2ccnc3[nH]c4ccc(-c5ccc(N6CCN(C)CC6)cc5)cc4c23)cc1 |  |
|  |  |  | < 5.00 | CN(C)/C=C/C(=O)c1ccc2[nH]c3nccc(-c4ccc(Cc5ccccc5)cc4)c3c2c1 |  |
| 5.96 | 5.82 | 5.80 |  | CN1CCN(c2ccc(-c3ccc4[nH]c5nccc(/C=C/c6ccccc6)c5c4c3)cc2)CC1 |  |
| < 4.60 | 5.55 | 5.37 |  | CN1CCN(c2ccc(-c3ccc4[nH]c5nccc(-c6ccc(-c7ccccc7)cc6)c5c4c3)cc2)CC1 |  |
| 5.02 | 5.74 | 5.57 |  | CN1CCN(c2ccc(-c3ccc4[nH]c5nccc(/C=C/c6cccc(F)c6)c5c4c3)cc2)CC1 |  |
| 5.29 | 5.80 | 5.72 |  | CN1CCN(c2ccc(-c3ccc4[nH]c5nccc(/C=C/c6ccccc6F)c5c4c3)cc2)CC1 |  |
|  |  |  | < 5.00 | COC(=O)c1cc(-c2ccnc3[nH]c4ccc(-c5ccc(N6CCN(C)CC6)cc5)cc4c23)ccc1Cc1ccccc1 |  |
| < 4.60 | < 4.60 | < 4.60 |  | Cc1cc(OCc2ccc(-c3ccnc4[nH]c5ccc(-c6ccc(N7CCN(C)CC7)cc6)cc5c34)cc2)ccc1Cl |  |
|  |  |  | < 5.00 | c1ccc(Cc2ccc(-c3ccnc4[nH]c5ccc(-c6ccc(N7CCN(Cc8cccnc8)CC7)cc6)cc5c34)cc2)cc1 |  |
| 4.74 | 5.77 | 5.21 |  | CN1CCN(c2ccc(-c3ccc4[nH]c5nccc(-c6ccc(C(=O)c7ccccc7)cc6)c5c4c3)cc2)CC1 |  |
| 5.77 | 6.05 | 5.82 |  | CN1CCN(c2ccc(-c3ccc4[nH]c5nccc(/C=C/c6ccccc6C(F)(F)F)c5c4c3)cc2)CC1 |  |
|  |  |  | < 5.00 | CCN(CC)CCSCC(=O)c1ccc2[nH]c3nccc(Cl)c3c2c1 |  |
|  |  |  | < 5.00 | C#Cc1ccnc2[nH]c3ccc(-c4ccc(N5CCN(C)CC5)cc4)cc3c12 |  |
| 5.06 |  |  |  | CN1CCN(c2ccc(-c3ccc4[nH]c5nccc(-c6ccc(Cc7ccccc7)cc6)c5c4c3)cc2)CC1 | inhibition [5]: > 90%; pIC50 [6]: 4.77; pIC50 [7]: 5.96; inhibition [8]: > 90%; Activity [9]: Active; half-life [10]: < 24 h; Activity [11]: Active; Activity [12]: 80%; Tmax [13]: 4 h; inhibition [14]: > 90%; pIC50 [15]: 5.89; pIC50 [16]: 6.15; Activity [17]: Active; inhibition [18]: > 90%; pIC50 [19]: 5.72; pIC50 [20]: 6.10; Activity [21]: Active; pIC50 [22]: 5.62; Activity [23]: Active |
| 5.48 | 6.22 | 5.92 |  | CN1CCN(c2ccc(-c3ccc4[nH]c5nccc(N6CCC(Cc7ccccc7)CC6)c5c4c3)cc2)CC1 |  |
|  |  |  | < 5.00 | COc1cc(C(O)c2ccccc2)c(O)cc1-c1ccnc2[nH]c3ccc(-c4ccc(N5CCN(C)CC5)cc4)cc3c12 (stereo not given) |  |
|  |  |  | < 5.00 | COc1ccc(-c2ccnc3[nH]c4ccccc4c23)cc1 |  |
| 6.10 | 6.30 | 6.10 |  | COc1cc(-c2ccnc3[nH]c4ccc(-c5ccc(N6CCN(C)CC6)cc5)cc4c23)c(OC)cc1Cc1ccccc1 |  |
| 4.89 | 5.68 | 5.59 |  | C[N+]1(C)CCN(c2ccc(-c3ccc4[nH]c5nccc(C#Cc6ccccc6C(F)(F)F)c5c4c3)cc2)CC1 |  |
| 5.57 | 5.72 | 5.74 |  | CN1CCN(c2ccc(-c3ccc4[nH]c5nccc(-c6cccc(-c7ccccc7)c6)c5c4c3)cc2)CC1 |  |
|  |  |  | < 5.00 | O=[N+]([O-])c1ccccc1Nc1ccnc2[nH]c3ccccc3c12 |  |
| 6.00 | 6.30 | 6.40 |  | CN1CCN(c2ccc(-c3ccc4[nH]c5nccc(-c6ccc(-c7cccc8ccccc78)cc6)c5c4c3)cc2)CC1 |  |
| 5.36 | 5.57 | 5.43 |  | CN1CCN(c2ccc(-c3ccc4[nH]c5nccc(C#Cc6ccccc6)c5c4c3)cc2)CC1 |  |
